Earlier results on one molecule are cited in patent US6444681B1, “Methods and compositions for treating Raynaud's Phenomenon and scleroderma” (The Ohio State University Research Foundation, priority 2000, dated 2002).

One may read the Kd as the equilibrium constant for the complex coming apart.

This series has as its target T1, α-2A (Homo sapiens, UniProt P08913).
T1 sequence (P08913 1-465): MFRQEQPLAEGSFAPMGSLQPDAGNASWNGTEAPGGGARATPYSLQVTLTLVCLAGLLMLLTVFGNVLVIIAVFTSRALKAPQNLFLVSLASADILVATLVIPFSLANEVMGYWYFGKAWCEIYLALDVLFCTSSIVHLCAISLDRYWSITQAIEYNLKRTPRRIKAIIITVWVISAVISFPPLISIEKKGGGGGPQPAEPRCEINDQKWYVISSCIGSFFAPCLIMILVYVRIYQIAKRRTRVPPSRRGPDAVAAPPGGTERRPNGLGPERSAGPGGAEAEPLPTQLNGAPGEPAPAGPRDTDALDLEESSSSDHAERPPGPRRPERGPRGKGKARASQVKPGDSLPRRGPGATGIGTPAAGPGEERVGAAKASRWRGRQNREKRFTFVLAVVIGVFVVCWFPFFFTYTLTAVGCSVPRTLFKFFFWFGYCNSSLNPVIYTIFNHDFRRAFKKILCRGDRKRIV
To be noted: cited from earlier work.

For the molecule `CN1CCC2(CCN3CCc4c(oc5ccccc45)C3C2)N(C)C1=O` (stereo not shown) [MK 912], the Kd was 1.8 nM.
